What was measured:
[1] = tested on: embolic middle cerebral artery occlusion (MCAO) rats; test: Embolic middle cerebral artery occlusion (MCAO) model in Wistar rat (Examples 2, 7-9); assay type: in vivo; conditions: for Mean neurological severity score (NSS): 24 hours post-MCAO, scale 0-18; for blood flow compared to saline treated group: measured for 3 hours, p<0.0001 vs saline
Protocol: At Day 0, anesthetize the rats to collect blood from the femoral artery to prepare the homologous clot. Create a partial arteriotomy with a microscissors and then insert a sterile PE-50 tubing ([…]) along the artery. Arterial blood collected in this length of the PE-50 tubing commonly generates ˜10 indusial clots that are suitable for MCAO. Keep the clot in the tube for 2 hours at room temperature and subsequently retain for 22 hours at 4° C.
At Day 1, to prepare the embolus, cut the clot containing PE-50 tubing into 32 mm segment in length and connect the segment with a 3 ml saline filled syringe with 23G needle. Push the syringe to flush the clot out of the PE-50 tubing into saline filled Petri dish. Draw and flush the clot into and out of the PE-10 tubing (draw from clot's end to avoid folding and twisting of the clot), respectively, 10-15 times to wash out the majority of the entrapped red blood cells until the clot without further RBCs releasing. Connect the PE-10 tubing to the modified PE-50 catheter and shift the clot into PE-50 catheter. Then, the modified PE-50 catheter is connected to a 100 μl Hamilton microsyringe. The clot is now ready to be used.
At Day 1, anesthetize the rats. Bluntly dissect the carotid sheath along the common carotid artery (CCA) until the ECA (ipsilateral external carotid artery), PPA (pterygopalatine artery), and ICA (internal carotid artery) bifurcation is exposed. […] Prepare laser Doppler flow probe into the tube of head. Temporarily clamp the CCA, PPA, and ICA with clip and apply a 4-0 silk suture loosely around the trunk of the ECA near bifurcation. Release the clip slowly and further advance the catheter within the ICA to enter the intracranial segment of the ICA until resistance is felt. The total length of the catheter that has been advanced is −19-22 mm from the ECA arteriotomy site. Retract the catheter 1-2 mm and slowly inject the clot with 5-10 μl of saline at rate of 10 μl/min. The percentage of regional cerebral flow (rCBF) decrease into ˜20-30% after clot injection. Wait for 30 minutes to let the clot stable at the ICA. Retract the catheter until its tip reaches the ECA/ICA bifurcation. Re-apply a clip to temporarily clamp the CCA and the ICA and then withdraw the catheter from the arteriotomy. Tighten the 4-0 silk suture around the ECA trunk to ligate the arteriotomy. Remove the clip. Wait for another 30 minutes to make sure the animal is stable and there is no blooding issue. Close the incision and terminate the anesthesia.
Neurological deficits were assessed at 24 h after MCAO surgery. The neurological function was graded on a scale of 0-18, with 0 representing normal function and 18 representing maximum neurological deficits (see FIG. 2).
24 hours after the induction of MCAO, anesthetize the rat with 5% isoflurane and use normal saline to do the perfusion from heart (150 ml). Decapitate the rat and collect the brain. Rinse the collected dish and matrix with PBS before used. To tear out clot after taking photo. Slice the brain coronally into […] 2-mm slices with a brain matrix on ice (Cut the brain into 8 pieces). Incubate the brain slices in 2% 2,3,5-triphenyltetrazolium chloride (TTC) (Sigma-Aldrich) in 1×PBS for 20 min at room temperature (avoid light) and record the result by photo. Then, using ImageJ to determine the size and extent of the infarction.
The caudal sides of all the TTC sections were scanned using a digital camera, and the images were stored as JPEG. The non-ischemic and ischemic hemisphere infarct areas were measured using image J (Image J, Bethesda, MD) software. All eight infarct area measurements were calculated with a 2 mm distance between the slices. […]

[2] = tested on: photochemically induced thrombosis of the middle cerebral artery in rats; test: Photochemically induced thrombotic (PIT) stroke model in rats (Examples 3, 10); assay type: in vivo, rat; conditions: 24 hours after PIT surgery
Protocol: Under anesthesia, the left middle cerebral artery (MCA) was occluded by a thrombus generated at the site of photoirradiation. The left MCA was exposed via a transorbital approach. A vertical incision was made between the left orbital and the external auditory canal. The temporal muscle was reflected and a subtemporal craniotomy was performed without removing the zygomatic arch. A window of approximately 3 mm in diameter was opened at the base of the skull. The main trunk of the left MCA was visible through the window. Endothelial cells in the MCA were focally injured by a photochemical reaction between rose bengal and green illumination (X540 nm, 600,000 Lux). Rose bengal (20 mg/kg) was intravenously dose and then the MCA was exposed to green light for a period of 10 min. During surgery, animals were placed on a heating pad set at 38 C.
Twenty-four hours (±2 hrs.) after thromboembolism, and once daily for the next five days, neurologic deficits were scored according to a modified method described by Ederson et al. (Stroke, 1986, 17: 472-476). A total of “0” indicates no deficit whereas a maximal score of “15” indicates severe deficits.
Each brain was cut into six coronal blocks with a rat brain matrix (2 mm interval). Brains were post-fixed overnight in 4% paraformaldehyde at 3.1-6.2° C., stored in phosphate-buffered saline and sent out for histological processing. Each coronal block was embedded in paraffin. One coronal section from each block was taken and stained with hematoxylin and eosin (HE).
From the HE-stained sections, the infarct areas (mm^2) were manually marked using OsiriX version 8.0.2 (Pixmeo SARL, Bernex, Switzerland). The volume of ischemic infarction (mm^3) was calculated as the […] (six coronal sections per brain). Infarct volumes were calculated in cerebral cortex and basal ganglia. Total infarct volume was calculated by adding the infarct volumes of the basal ganglia and cerebral cortex.
Rats were treated with vehicle (saline), rtPA (10 mg/kg), DC009 (0.007 mg/kg, 15-minute IV infusion) after 1 hours of stroke onset, or DC009 (0.007 mg/kg, 15-minute IV infusion) after 3 hours of stroke onset. (n=10 per treatment group). At 24 hours after drug administration, rats were assessed with a neurological deficit scale (NDS).
24 hours after PIT surgery, rats were euthanized, and brains were processed for […].

[3] = DC009 0.007 mg/kg, 15-minute IV infusion, 1 hr post-PIT
[4] = DC009 0.007 mg/kg, 15-minute IV infusion, 3 hr post-PIT

| Compound | Mean neurological severity score (NSS) ([1]; DC009 0.005 mg/kg, 15-minute IV infusion 3 hours after stroke onset) | infarct size compared to saline and rtPA treated groups ([1]; DC009 0.025 mg/kg at 3 and 6 hours post MCAO surgery, 24 hours after stroke, TTC, FIG. 4) | restoring occluded blood flow ([1]; DC009 0.05 mg/kg, 15-minute IV infusion 1 hour after stroke onset, FIG. 3) | blood flow compared to saline treated group ([1]; DC009 0.05, 0.1, 0.2 and 0.4 mg/kg, 15-minute IV infusion 1 hour after stroke onset, FIG. 3) | infarction volume, Basal ganglia [2, 3] | infarction volume, Cerebral cortex [2, 3] | infarction volume, Basal ganglia [2, 4] | infarction volume, Cerebral cortex [2, 4] | infarction volume, Total [2, 4] | blood flow compared to saline treated group ([1]; rtPA 10 mg/kg (10% IV bolus, rest infused for 30 minutes) 1 hour after stroke onset, FIG. 3) | Mean neurological severity score (NSS) ([1]; rtPA 10 mg/kg (10% IV bolus, rest infused for 30 minutes) 3 hours after stroke onset) | infarct volumes (% hemisphere) ([1]; rtPA 10 mg/kg (10% IV bolus, rest infused for 30 minutes) 3 hours after stroke onset, 24 hours, TTC) | infarction volume, Basal ganglia ([2]; rtPA 10 mg/kg, 1 hr post-PIT) | infarction volume, Cerebral cortex ([2]; rtPA 10 mg/kg, 1 hr post-PIT) | infarction volume, Basal ganglia ([2]; rtPA 10 mg/kg, 3 hr post-PIT) | infarction volume, Cerebral cortex ([2]; rtPA 10 mg/kg, 3 hr post-PIT) | infarction volume, Total ([2]; rtPA 10 mg/kg, 3 hr post-PIT) |
| --- | --- | --- | --- | --- | --- | --- | --- | --- | --- | --- | --- | --- | --- | --- | --- | --- | --- |
| CC(NC(=O)C1CCCN1)C(=O)NC(CCCCN)C(=O)NCCCCC(NC(=O)C1Cc2cc(O)c(O)cc2C(C)(C)N1)C(=O)O (stereo not drawn) [DC009, 3S-6,7-dihydroxy-1,1-dimethyl-1,2,3,4-tetrahydro-isoquinoline-3-acyl-Lys(Pro-Ala-Lys)] | 7.13 ± 0.64 | significant smaller infarct size | good efficacy | increased | 63.7 ± 10.3 ** mm^3 | 210.6 ± 26.4 mm^3 | 94.8 ± 6.2 mm^3 | 227.7 ± 18.4 mm^3 | 322.5 ± 23.0 mm^3 |  |  |  |  |  |  |  |  |
| rtPA: Alteplase (Activase), a recombinant tissue-type plasminogen activator (rtPA) [reference compound] |  |  |  |  |  |  |  |  |  | increased | 6.38 ± 0.74 | 43.23 ± 11.03 % hemisphere | 80.7 ± 4.3 mm^3 | 200.0 ± 18.1 mm^3 | 87.0 ± 7.0 mm^3 | 173.5 ± 19.4 ** mm^3 | 260.6 ± 23.9 ** mm^3 |

From US12648942B2, “Method for treating acute ischemic stroke” (Lumosa Therapeutics Co., LTD, priority 2021, dated 2026)
